Test results from publication PMC10363032 (Cancer Chemotherapy and Pharmacology, 2023).

Test: safety and tolerability, adverse events (CTCAE version 4.03) in patients
[1] = after receiving adavosertib, all 30 patients
[2] = probe cocktail plus adavosertib 26 patients, adavosertib alone on days 1 and 2, 30
[3] = probe cocktail plus adavosertib n = 26, adavosertib alone n = 30

Description: Safety was appraised throughout the study by the assessment of clinical and laboratory adverse events (AEs; graded by Common Terminology Criteria for Adverse Events [CTCAE], version 4.03), physical examination, and evaluation of vital signs and laboratory data (clinical chemistry and hematology).
Patients were evaluated according to the treatment received.

C=CCn1c(=O)c2cnc(Nc3ccc(N4CCN(C)CC4)cc3)nc2n1-c1cccc(C(C)(C)O)n1 [adavosertib]
Any AE (causally related), any grade (Total (n = 30)): 19 (63.3) Number of patients (%) | Any AE (causally related), grade ≥3 (Total (n = 30)): 6 (20.0) Number of patients (%) | Blood and lymphatic system disorders (causally related), any grade (Total (n = 30)): 4 (13.3) Number of patients (%) | Blood and lymphatic system disorders (causally related), grade ≥3 (Total (n = 30)): 3 (10.0) Number of patients (%) | Blood creatinine increased (causally related), any grade (Total (n = 30)): 1 (3.3) Number of patients (%) | Blood creatinine increased (causally related), grade ≥3 (Total (n = 30)): 0 Number of patients (%) | Decreased appetite (causally related), any grade (Total (n = 30)): 1 (3.3) Number of patients (%) | Decreased appetite (causally related), grade ≥3 (Total (n = 30)): 0 Number of patients (%) | Dehydration (causally related), any grade (Total (n = 30)): 2 (6.7) Number of patients (%) | Dehydration (causally related), grade ≥3 (Total (n = 30)): 1 (3.3) Number of patients (%) | Diarrhea (causally related), any grade (Total (n = 30)): 14 (46.7) Number of patients (%) | Diarrhea (causally related), grade ≥3 (Total (n = 30)): 3 (10.0) Number of patients (%) | Dizziness (causally related), any grade (Total (n = 30)): 2 (6.7) Number of patients (%) | Dizziness (causally related), grade ≥3 (Total (n = 30)): 0 Number of patients (%) | Fatigue (causally related), any grade (Total (n = 30)): 1 (3.3) Number of patients (%) | Fatigue (causally related), grade ≥3 (Total (n = 30)): 0 Number of patients (%) | Flushing (causally related), any grade (Total (n = 30)): 1 (3.3) Number of patients (%) | Flushing (causally related), grade ≥3 (Total (n = 30)): 0 Number of patients (%) | Gastrointestinal disorders (causally related), any grade (Total (n = 30)): 17 (56.7) Number of patients (%) | Gastrointestinal disorders (causally related), grade ≥3 (Total (n = 30)): 3 (10.0) Number of patients (%) | General disorders and administration site conditions (causally related), any grade (Total (n = 30)): 1 (3.3) Number of patients (%) | General disorders and administration site conditions (causally related), grade ≥3 (Total (n = 30)): 0 Number of patients (%) | Hypokalemia (causally related), any grade (Total (n = 30)): 1 (3.3) Number of patients (%) | Hypokalemia (causally related), grade ≥3 (Total (n = 30)): 1 (3.3) Number of patients (%) | Investigations (causally related), any grade (Total (n = 30)): 4 (13.3) Number of patients (%) | Investigations (causally related), grade ≥3 (Total (n = 30)): 0 Number of patients (%) | Metabolism and nutrition disorders (causally related), any grade (Total (n = 30)): 3 (10.0) Number of patients (%) | Metabolism and nutrition disorders (causally related), grade ≥3 (Total (n = 30)): 2 (6.7) Number of patients (%) | Muscle spasms (causally related), any grade (Total (n = 30)): 1 (3.3) Number of patients (%) | Muscle spasms (causally related), grade ≥3 (Total (n = 30)): 0 Number of patients (%) | Musculoskeletal and connective tissue disorders (causally related), any grade (Total (n = 30)): 1 (3.3) Number of patients (%) | Musculoskeletal and connective tissue disorders (causally related), grade ≥3 (Total (n = 30)): 0 Number of patients (%) | Nasal ulcer (causally related), any grade (Total (n = 30)): 1 (3.3) Number of patients (%) | Nasal ulcer (causally related), grade ≥3 (Total (n = 30)): 0 Number of patients (%) | Nausea (causally related), any grade (Total (n = 30)): 6 (20.0) Number of patients (%) | Nausea (causally related), grade ≥3 (Total (n = 30)): 1 (3.3) Number of patients (%) | Nervous system disorders (causally related), any grade (Total (n = 30)): 2 (6.7) Number of patients (%) | Nervous system disorders (causally related), grade ≥3 (Total (n = 30)): 0 Number of patients (%) | Neutropenia (causally related), any grade (Total (n = 30)): 2 (6.7) Number of patients (%) | Neutropenia (causally related), grade ≥3 (Total (n = 30)): 2 (6.7) Number of patients (%) | Pancreatitis (causally related), any grade (Total (n = 30)): 1 (3.3) Number of patients (%) | Pancreatitis (causally related), grade ≥3 (Total (n = 30)): 1 (3.3) Number of patients (%) | Renal and urinary disorders (causally related), any grade (Total (n = 30)): 1 (3.3) Number of patients (%) | Renal and urinary disorders (causally related), grade ≥3 (Total (n = 30)): 1 (3.3) Number of patients (%) | Respiratory, thoracic and mediastinal disorders (causally related), any grade (Total (n = 30)): 1 (3.3) Number of patients (%) | Respiratory, thoracic and mediastinal disorders (causally related), grade ≥3 (Total (n = 30)): 0 Number of patients (%) | Stomatitis (causally related), any grade (Total (n = 30)): 1 (3.3) Number of patients (%) | Stomatitis (causally related), grade ≥3 (Total (n = 30)): 0 Number of patients (%) | Thrombocytopenia (causally related), any grade (Total (n = 30)): 2 (6.7) Number of patients (%) | Thrombocytopenia (causally related), grade ≥3 (Total (n = 30)): 0 Number of patients (%) | Vascular disorders (causally related), any grade (Total (n = 30)): 1 (3.3) Number of patients (%) | Vascular disorders (causally related), grade ≥3 (Total (n = 30)): 0 Number of patients (%) | Vomiting (causally related), any grade (Total (n = 30)): 7 (23.3) Number of patients (%) | Vomiting (causally related), grade ≥3 (Total (n = 30)): 1 (3.3) Number of patients (%) | Weight decreased (causally related), any grade (Total (n = 30)): 3 (10.0) Number of patients (%) | Weight decreased (causally related), grade ≥3 (Total (n = 30)): 0 Number of patients (%) | patients with treatment-related vomiting (adavosertib alone n = 30): 20.0% | patients reporting serious AEs (SAEs) considered related to adavosertib (adavosertib alone on days 1 and 2, two SAEs: acute kidney injury and pancreatitis, led to discontinuation): One | patients with treatment-related adverse events [1]: 63% | patients with treatment-related adverse events grade ≥ 3 [1]: 20% | patients with CTCAE grade ≥ 3 acute kidney injury (any cause): 3.3% | patients with CTCAE grade ≥ 3 dehydration (any cause): 3.3% | patients with CTCAE grade ≥ 3 diarrhea (any cause): 10.0% | patients with CTCAE grade ≥ 3 hypokalemia (any cause): 3.3% | patients with CTCAE grade ≥ 3 hypoxia (any cause): 3.3% | patients with CTCAE grade ≥ 3 nausea (any cause): 3.3% | patients with CTCAE grade ≥ 3 necrotizing soft-tissue infection (any cause): 3.3% | patients with CTCAE grade ≥ 3 neutropenia (any cause): 3.3% | patients with CTCAE grade ≥ 3 pancreatitis (any cause): 3.3% | patients with CTCAE grade ≥ 3 small-intestinal obstruction (any cause): 3.3% | patients with CTCAE grade ≥ 3 thrombocytopenia (any cause): 3.3% | patients with CTCAE grade ≥ 3 vomiting (any cause): 3.3% | patients who experienced AEs (cocktail alone 33 patients, probe cocktail plus adavosertib 26, adavosertib alone on days 1 and 2, 30): 53.3% | patients who discontinued treatment because of AEs (grade 3 diarrhea (related to adavosertib), grade 3 small-bowel obstruction (not related)): Two | patients with adverse events of CTCAE grade ≥ 3 [2]: 16.7% | patients with treatment-related AEs [2]: 36.7% | patients with treatment-related diarrhea [3]: 33.3% | patients with treatment-related nausea [3]: 10.0%
